Experimental data from PMC11604427 (Frontiers in Pharmacology, 2024).

Tests used:
In vivo pharmacokinetics = settings: BALB/c, mouse, plasma, mice, 5 mg/kg
Method: In the pharmacokinetic (PK) assessment of PKHD-5, BALB/c mice were utilized as the experimental model. PKHD-5 was administered either intraperitoneally or orally at a dosage of 5 mg/kg. Serial blood samples (0.25 mL) were collected at 0.25, 0.5, 1, 2, 4, 8, 16, and 24 h post-treatment. Each plasma sample (50 μL) underwent protein precipitation with a 1:1 mixture of methanol and acetonitrile (200 μL) and an internal standard. After vortexing for 5 min, the samples were centrifuged at 12,000 rpm for 5 min, yielding a supernatant (60 μL) for LC-MS/MS analysis. The data obtained were analyzed using Phoenix software to determine the PK profile of PKHD-5 in the mouse model.

FYN = biological target: T1, FYN (Homo sapiens, UniProt P06241); assay: SelectScreen kinase selectivity assay; type: biochemical
T1 construct: purchased Thermo Fisher Scientific (SelectScreen service)
Method: (§1) The kinase selectivity analysis of PKHD-5 was performed using the SelectScreen kinase analysis service provided by Thermo Fisher Scientific. The experiment initially involved the preparation of a series of inhibitor solutions at varying concentrations, which were then reacted with various kinase targets under standardized conditions to calculate the percentage inhibition for each test solution. Ultimately, the IC50 values were calculated based on the concentration-inhibition curves by fitting a four-parameter logistic curve, thereby assessing the potency and selectivity of the inhibitors. The analysis results are detailed in Supplementary Table S1.

JAK3 = biological target: T2, JAK3 (Homo sapiens, UniProt P52333); assay: SelectScreen kinase selectivity assay; type: biochemical
T2 construct: purchased Thermo Fisher Scientific (SelectScreen service)
Method: as §1

IGF1R = biological target: T3, IGF1R (Homo sapiens, UniProt P08069); assay: SelectScreen kinase selectivity assay; type: biochemical
T3 construct: purchased Thermo Fisher Scientific (SelectScreen service)
Method: as §1

FGFR1 = biological target: T4, FGFR1 (Homo sapiens, UniProt P11362); assay: SelectScreen kinase selectivity assay; type: biochemical
T4 construct: purchased Thermo Fisher Scientific (SelectScreen service)
Method: as §1

EPHA4 = biological target: T5, EPHA4 (Homo sapiens, UniProt P54764); assay: SelectScreen kinase selectivity assay; type: biochemical
T5 construct: purchased Thermo Fisher Scientific (SelectScreen service)
Method: as §1

EPHA2 = biological target: T6, EPHA2 (Homo sapiens, UniProt P29317); assay: SelectScreen kinase selectivity assay; type: biochemical
T6 construct: purchased Thermo Fisher Scientific (SelectScreen service)
Method: as §1

PLK1 = biological target: T7, PLK1 (Homo sapiens, UniProt P53350); assay: SelectScreen kinase selectivity assay; type: biochemical
T7 construct: purchased Thermo Fisher Scientific (SelectScreen service)
Method: as §1

DDR2 = biological target: T8, DDR2 (Homo sapiens, UniProt Q16832); assay: SelectScreen kinase selectivity assay; type: biochemical
T8 construct: purchased Thermo Fisher Scientific (SelectScreen service)
Method: as §1

JAK1 = biological target: T9, JAK1 (Homo sapiens, UniProt P23458); assay: SelectScreen kinase selectivity assay; type: biochemical
T9 construct: purchased Thermo Fisher Scientific (SelectScreen service)
Method: as §1

EPHB1 = biological target: T10, EPHB1 (Homo sapiens, UniProt P54762); assay: SelectScreen kinase selectivity assay; type: biochemical
T10 construct: purchased Thermo Fisher Scientific (SelectScreen service)
Method: as §1

MERTK = biological target: T11, MERTK (Homo sapiens, UniProt Q12866); assay: SelectScreen kinase selectivity assay; type: biochemical
T11 construct: purchased Thermo Fisher Scientific (SelectScreen service)
Method: as §1

PDGFRB = biological target: T12, PDGFRB (Homo sapiens, UniProt P09619); assay: SelectScreen kinase selectivity assay; type: biochemical
T12 construct: purchased Thermo Fisher Scientific (SelectScreen service)
Method: as §1

ALK = biological target: T13, ALK (Homo sapiens, UniProt Q9UM73); assay: SelectScreen kinase selectivity assay; type: biochemical
T13 construct: purchased Thermo Fisher Scientific (SelectScreen service)
Method: as §1

ABL2 = biological target: T14, ABL2 (Homo sapiens, UniProt P42684); assay: SelectScreen kinase selectivity assay; type: biochemical
T14 construct: purchased Thermo Fisher Scientific (SelectScreen service)
Method: as §1

AXL = biological target: T15, AXL (Homo sapiens, UniProt P30530); assay: SelectScreen kinase selectivity assay; type: biochemical
T15 construct: purchased Thermo Fisher Scientific (SelectScreen service)
Method: as §1

KDR = biological target: T16, KDR (Homo sapiens, UniProt P35968); assay: SelectScreen kinase selectivity assay; type: biochemical
T16 construct: purchased Thermo Fisher Scientific (SelectScreen service)
Method: as §1

MUSK = biological target: T17, MUSK (Homo sapiens, UniProt O15146); assay: SelectScreen kinase selectivity assay; type: biochemical
T17 construct: purchased Thermo Fisher Scientific (SelectScreen service)
Method: as §1

PTK2 = biological target: T18, PTK2 (Homo sapiens, UniProt Q05397); assay: SelectScreen kinase selectivity assay; type: biochemical
T18 construct: purchased Thermo Fisher Scientific (SelectScreen service)
Method: as §1

PDGFRA = biological target: T19, PDGFRA (Homo sapiens, UniProt P16234); assay: SelectScreen kinase selectivity assay; type: biochemical
T19 construct: purchased Thermo Fisher Scientific (SelectScreen service)
Method: as §1

JAK2 = biological target: T20, JAK2 (Homo sapiens, UniProt O60674); assay: SelectScreen kinase selectivity assay; type: biochemical
T20 construct: purchased Thermo Fisher Scientific (SelectScreen service)
Method: as §1

EPHA3 = biological target: T21, EPHA3 (Homo sapiens, UniProt P29320); assay: SelectScreen kinase selectivity assay; type: biochemical
T21 construct: purchased Thermo Fisher Scientific (SelectScreen service)
Method: as §1

[1] = biological target: T22, Human recombinant PKMYT1 enzyme (Homo sapiens, UniProt Q99640); assay: ADP-GLO enzyme inhibition assay; type: biochemical
T22 construct: purchased Abcam
T22 sequence (Q99640 1-499): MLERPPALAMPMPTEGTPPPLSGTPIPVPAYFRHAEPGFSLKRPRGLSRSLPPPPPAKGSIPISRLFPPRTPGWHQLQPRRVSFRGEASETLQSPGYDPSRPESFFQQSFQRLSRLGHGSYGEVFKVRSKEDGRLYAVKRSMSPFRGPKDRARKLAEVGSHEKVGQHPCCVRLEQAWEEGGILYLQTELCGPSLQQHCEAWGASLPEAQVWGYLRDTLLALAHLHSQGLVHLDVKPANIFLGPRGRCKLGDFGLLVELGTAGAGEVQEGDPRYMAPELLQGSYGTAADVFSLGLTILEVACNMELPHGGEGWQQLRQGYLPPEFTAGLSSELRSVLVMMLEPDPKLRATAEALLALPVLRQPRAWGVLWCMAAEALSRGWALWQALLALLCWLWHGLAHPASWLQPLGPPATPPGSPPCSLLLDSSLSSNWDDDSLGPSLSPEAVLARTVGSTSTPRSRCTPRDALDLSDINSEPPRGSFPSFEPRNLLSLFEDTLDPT
Method: The ADP-GLO™ kinase assay kit, purchased from Promega Corporation (Madison, WI, United States), included the ADP-GLO reagent, the kinase assay reagent, and ultra-pure ATP and ADP. PKMYT1 enzyme was dissolved in 5 μL of freshly prepared enzyme assay buffer containing 70 mM Hepes, 3 mM MgCl2, 3 mM MnCl2, 50 μg/mL PEG20000, 3 μM sodium orthovanadate, 1.2 mM dithiothreitol, and then injected into 384-well plates. […] The enzymatic reaction was initiated by adding 5 μL of ATP, followed by a 60-min incubation at 30°C. Subsequently, 15 μL of ADP-GLO reagent was added, and the incubation was continued for an additional 40 min at room temperature. Then, 30 μL of kinase detection reagent was introduced, and the samples were incubated for a final 30 min. Luminescence measurements were taken using an Envision plate reader (PerkinElmer). The IC50 value of each tested compound was calculated by GraphPad Prism software.

T4 sequence (P11362 22-822): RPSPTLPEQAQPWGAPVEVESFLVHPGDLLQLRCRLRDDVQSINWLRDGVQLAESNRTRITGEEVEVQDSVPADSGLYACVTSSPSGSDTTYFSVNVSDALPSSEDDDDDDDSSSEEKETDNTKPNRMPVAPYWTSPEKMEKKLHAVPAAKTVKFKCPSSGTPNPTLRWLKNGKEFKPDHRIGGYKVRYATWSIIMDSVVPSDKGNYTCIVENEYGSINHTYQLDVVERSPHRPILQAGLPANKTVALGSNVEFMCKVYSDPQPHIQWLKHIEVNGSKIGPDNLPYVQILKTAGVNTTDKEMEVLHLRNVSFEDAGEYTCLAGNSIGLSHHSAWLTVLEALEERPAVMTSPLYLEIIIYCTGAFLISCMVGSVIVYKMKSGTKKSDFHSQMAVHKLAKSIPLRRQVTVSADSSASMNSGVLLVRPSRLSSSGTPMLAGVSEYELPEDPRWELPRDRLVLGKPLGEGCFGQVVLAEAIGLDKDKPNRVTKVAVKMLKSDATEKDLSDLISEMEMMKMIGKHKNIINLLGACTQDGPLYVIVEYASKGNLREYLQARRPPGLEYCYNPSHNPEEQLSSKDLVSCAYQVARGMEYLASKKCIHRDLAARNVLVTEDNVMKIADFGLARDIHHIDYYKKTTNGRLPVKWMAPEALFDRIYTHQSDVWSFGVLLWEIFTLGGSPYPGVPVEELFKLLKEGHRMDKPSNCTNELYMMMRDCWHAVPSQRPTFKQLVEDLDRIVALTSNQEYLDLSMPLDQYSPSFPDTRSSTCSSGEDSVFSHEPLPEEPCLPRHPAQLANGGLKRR
T10 sequence (P54762 18-984): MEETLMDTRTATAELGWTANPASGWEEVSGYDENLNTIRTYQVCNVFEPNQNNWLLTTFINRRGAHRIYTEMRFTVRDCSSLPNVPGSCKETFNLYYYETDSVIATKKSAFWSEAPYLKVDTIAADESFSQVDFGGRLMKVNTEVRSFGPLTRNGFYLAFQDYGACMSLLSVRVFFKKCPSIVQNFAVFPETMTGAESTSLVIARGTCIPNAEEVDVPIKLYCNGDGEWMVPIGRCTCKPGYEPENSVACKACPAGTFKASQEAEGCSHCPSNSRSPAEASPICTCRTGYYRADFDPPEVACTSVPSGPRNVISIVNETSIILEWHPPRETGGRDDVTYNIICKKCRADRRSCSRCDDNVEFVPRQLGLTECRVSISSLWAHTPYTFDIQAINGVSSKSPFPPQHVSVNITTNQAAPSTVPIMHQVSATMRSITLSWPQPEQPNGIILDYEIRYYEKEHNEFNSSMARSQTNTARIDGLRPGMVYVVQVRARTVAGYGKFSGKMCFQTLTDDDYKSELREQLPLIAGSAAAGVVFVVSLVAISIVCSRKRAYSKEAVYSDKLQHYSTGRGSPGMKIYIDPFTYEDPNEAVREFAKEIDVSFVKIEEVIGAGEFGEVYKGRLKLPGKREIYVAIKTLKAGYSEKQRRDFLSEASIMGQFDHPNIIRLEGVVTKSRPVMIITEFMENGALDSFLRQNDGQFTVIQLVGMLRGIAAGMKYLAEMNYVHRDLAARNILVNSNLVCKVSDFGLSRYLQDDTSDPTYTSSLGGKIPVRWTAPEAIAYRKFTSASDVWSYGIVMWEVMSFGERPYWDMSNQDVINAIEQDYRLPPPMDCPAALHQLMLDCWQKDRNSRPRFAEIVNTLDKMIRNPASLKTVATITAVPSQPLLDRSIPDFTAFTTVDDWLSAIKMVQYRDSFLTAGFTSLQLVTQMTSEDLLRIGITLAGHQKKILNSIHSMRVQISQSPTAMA
T6 sequence (P29317 24-976): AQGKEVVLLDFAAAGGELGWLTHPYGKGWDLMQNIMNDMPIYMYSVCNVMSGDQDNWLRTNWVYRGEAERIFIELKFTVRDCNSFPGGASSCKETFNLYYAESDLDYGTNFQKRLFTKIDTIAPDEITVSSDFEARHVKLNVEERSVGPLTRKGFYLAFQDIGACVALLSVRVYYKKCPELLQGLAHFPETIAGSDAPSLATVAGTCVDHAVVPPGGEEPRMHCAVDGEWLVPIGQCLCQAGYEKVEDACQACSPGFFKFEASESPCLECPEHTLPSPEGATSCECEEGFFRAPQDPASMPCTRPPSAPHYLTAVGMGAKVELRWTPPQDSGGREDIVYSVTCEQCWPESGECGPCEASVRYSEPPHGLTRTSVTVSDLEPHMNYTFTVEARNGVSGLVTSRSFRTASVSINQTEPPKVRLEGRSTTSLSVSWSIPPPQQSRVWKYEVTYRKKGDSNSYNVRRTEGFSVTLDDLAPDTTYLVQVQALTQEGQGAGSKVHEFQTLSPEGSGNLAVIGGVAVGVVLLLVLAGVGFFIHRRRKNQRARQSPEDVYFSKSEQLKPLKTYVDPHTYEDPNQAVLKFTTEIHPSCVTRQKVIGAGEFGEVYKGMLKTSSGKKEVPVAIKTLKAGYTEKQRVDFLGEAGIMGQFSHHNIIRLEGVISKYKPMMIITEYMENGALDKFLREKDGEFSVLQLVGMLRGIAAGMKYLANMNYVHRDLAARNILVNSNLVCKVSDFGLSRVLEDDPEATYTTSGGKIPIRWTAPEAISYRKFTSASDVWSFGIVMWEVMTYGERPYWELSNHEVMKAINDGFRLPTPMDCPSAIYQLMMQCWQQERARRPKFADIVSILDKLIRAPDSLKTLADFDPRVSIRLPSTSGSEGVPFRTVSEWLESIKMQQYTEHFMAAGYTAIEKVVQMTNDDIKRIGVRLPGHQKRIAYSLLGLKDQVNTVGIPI
T16 sequence (P35968 20-1356): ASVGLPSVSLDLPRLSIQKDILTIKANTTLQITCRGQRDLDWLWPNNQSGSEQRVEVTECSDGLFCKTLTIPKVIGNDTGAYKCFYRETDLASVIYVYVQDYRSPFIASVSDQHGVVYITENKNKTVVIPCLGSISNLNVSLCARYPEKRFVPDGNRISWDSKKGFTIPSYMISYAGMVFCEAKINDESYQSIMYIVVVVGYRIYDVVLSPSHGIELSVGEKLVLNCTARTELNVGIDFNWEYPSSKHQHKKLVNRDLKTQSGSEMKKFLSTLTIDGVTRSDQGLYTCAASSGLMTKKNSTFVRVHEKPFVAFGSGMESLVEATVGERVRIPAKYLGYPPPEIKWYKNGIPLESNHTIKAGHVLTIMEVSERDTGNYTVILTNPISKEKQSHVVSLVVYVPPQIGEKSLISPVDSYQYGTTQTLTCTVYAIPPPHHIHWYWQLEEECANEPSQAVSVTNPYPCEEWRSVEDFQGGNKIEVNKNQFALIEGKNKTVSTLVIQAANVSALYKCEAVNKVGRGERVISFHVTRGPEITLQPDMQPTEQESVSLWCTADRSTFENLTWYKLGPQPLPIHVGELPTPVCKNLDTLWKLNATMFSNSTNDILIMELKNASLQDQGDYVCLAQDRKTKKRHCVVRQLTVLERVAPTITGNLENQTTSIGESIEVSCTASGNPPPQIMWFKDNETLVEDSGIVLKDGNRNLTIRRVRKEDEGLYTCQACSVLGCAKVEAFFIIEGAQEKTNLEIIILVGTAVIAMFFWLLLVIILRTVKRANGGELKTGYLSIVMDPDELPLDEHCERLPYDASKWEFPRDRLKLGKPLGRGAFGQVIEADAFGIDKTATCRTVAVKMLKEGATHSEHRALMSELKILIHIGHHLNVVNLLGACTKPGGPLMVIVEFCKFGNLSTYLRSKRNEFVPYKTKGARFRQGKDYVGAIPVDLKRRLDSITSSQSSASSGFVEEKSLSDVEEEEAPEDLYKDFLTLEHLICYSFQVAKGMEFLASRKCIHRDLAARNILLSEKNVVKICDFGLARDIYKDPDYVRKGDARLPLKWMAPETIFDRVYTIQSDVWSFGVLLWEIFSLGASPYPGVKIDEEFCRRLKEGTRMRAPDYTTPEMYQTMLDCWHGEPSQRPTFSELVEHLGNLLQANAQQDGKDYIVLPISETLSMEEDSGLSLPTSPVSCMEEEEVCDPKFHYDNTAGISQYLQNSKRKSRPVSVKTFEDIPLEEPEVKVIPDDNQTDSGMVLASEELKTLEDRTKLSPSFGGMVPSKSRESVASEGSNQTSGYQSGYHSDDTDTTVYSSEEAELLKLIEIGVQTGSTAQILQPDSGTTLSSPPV
T8 sequence (Q16832 22-855): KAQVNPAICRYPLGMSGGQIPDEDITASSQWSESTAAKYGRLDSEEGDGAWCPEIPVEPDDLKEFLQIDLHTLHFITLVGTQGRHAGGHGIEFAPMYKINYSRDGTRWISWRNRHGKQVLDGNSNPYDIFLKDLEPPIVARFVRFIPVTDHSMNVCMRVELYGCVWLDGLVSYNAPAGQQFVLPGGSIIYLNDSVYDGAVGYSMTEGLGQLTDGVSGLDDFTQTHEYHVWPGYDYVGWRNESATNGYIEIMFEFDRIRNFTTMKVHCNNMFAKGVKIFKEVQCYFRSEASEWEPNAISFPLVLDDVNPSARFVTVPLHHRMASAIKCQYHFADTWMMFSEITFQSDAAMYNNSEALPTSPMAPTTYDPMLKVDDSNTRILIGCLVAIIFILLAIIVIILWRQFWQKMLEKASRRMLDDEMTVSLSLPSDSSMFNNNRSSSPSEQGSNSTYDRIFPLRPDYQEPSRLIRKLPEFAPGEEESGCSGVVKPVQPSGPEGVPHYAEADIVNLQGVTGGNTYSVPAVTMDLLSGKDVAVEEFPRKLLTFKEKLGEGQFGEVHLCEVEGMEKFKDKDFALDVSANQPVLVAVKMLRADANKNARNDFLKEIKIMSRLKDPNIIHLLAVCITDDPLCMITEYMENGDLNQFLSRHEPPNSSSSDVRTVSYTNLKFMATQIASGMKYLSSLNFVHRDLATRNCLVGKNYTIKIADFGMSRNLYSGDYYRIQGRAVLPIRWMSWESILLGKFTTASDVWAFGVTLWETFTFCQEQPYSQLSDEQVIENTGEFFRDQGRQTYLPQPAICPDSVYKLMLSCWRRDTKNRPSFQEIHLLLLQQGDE

Cc1ccc(O)c(C)c1-n1c(N)c(C(N)=O)c2cc(CCCCCC(=O)NO)c(C)nc21 [PKHD-5]
AUC (In vivo pharmacokinetics; IP): 15 µM·h
Cmax (In vivo pharmacokinetics; IP): 3.26 µM
bioavailability (In vivo pharmacokinetics; IP): 82%
half-life (In vivo pharmacokinetics; IP): 4.75 h
AUC (In vivo pharmacokinetics; PO): 12.2 µM·h
Cmax (In vivo pharmacokinetics; PO): 2.92 µM
bioavailability (In vivo pharmacokinetics; PO): 66%
half-life (In vivo pharmacokinetics; PO): 3.93 h
IC50 (FYN): > 50 µM
IC50 (JAK3): > 50 µM
IC50 (IGF1R): > 50 µM
IC50 (FGFR1): > 50 µM
IC50 (EPHA4): > 50 µM
IC50 (EPHA2): > 50 µM
IC50 (PLK1): > 50 µM
IC50 (DDR2): > 50 µM
IC50 (JAK1): > 50 µM
IC50 (EPHB1): > 50 µM
IC50 (MERTK): > 50 µM
IC50 (PDGFRB): > 50 µM
IC50 (ALK): > 50 µM
IC50 (ABL2): > 50 µM
IC50 (AXL): > 50 µM
IC50 (KDR): > 50 µM
IC50 (MUSK): > 50 µM
IC50 (PTK2): > 50 µM
IC50 (PDGFRA): > 50 µM
IC50 (JAK2): > 50 µM
IC50 (EPHA3): > 50 µM
IC50 ([1]; ADP-GLO method): 0.00315 ± 0.00021 µM
fold inhibition of PKMYT1 compared with the control compound 39 ([1]; ratio of IC50 values versus compound 39): 4.91 fold
